98 compounds from ChEMBL document CHEMBL3507680, “University of Dundee, Gates Library screen for HepG2 cell viability” can be followed below.

This data set in a line: Human HepG2 cell viability assay in 384 well format. Type of data set: toxicity, cell-based. The arrangement: dose 125 nL, time 70.5 hour; concentration not given beside the values. To be noted: HepG2 cells, read-out: Inhibition.

Molecules are shown by their SMILES.

On to `CCCc1nc(C(=O)NCCN2CCC(c3ccccc3C)C2)cs1` (stereo not drawn), for which the cytotoxicity at 70.5 h turned out to be 0.739%.

As for `CCC[C@H]1CN(C(=O)c2ccc3[nH]c(CO)nc3c2)C[C@@H]1N`, the cytotoxicity at 70.5 h is -27.1%.

In the case of `Cn1cc(C(=O)N2CCCC(c3ncc[nH]3)C2)cn1` (stereo not drawn), the cytotoxicity at 70.5 h was -7.17%.

In the case of `CSCC(=O)NC1CC(=O)N(CCc2ccccc2)C1` (stereo not drawn), the cytotoxicity at 70.5 h is -10.9%.

As to `CCCN1CCN(C(=O)c2ccc3nc(C)oc3c2)[C@H]2CS(=O)(=O)C[C@H]21`, the cytotoxicity at 70.5 h is -7.59%.

For the compound `COC(=O)c1ccc(C(=O)N2CCCC(Nc3ccc(F)cc3)C2)cc1` (stereo not drawn), the cytotoxicity at 70.5 h is -1.16%.

For `COc1ccc2c(c1)C(C(=O)NCCN1CCNC1=O)CC(=O)N2` (stereo not drawn), the cytotoxicity at 70.5 h worked out at 16.8%.

As for `CC(C)N1CC(C(=O)N2CCN(CCn3cccc3)CC2)CC1=O` (stereo not drawn), the cytotoxicity at 70.5 h is -3.03%.

Take `Cn1nccc1C(=O)N1CCCC1c1ccc(C(=O)N2CCOCC2)s1` (stereo not drawn): the cytotoxicity at 70.5 h amounted to 0.297%.

For `OCC1(O)CCCN(Cc2nnc(-c3ccccc3)o2)CC1` (stereo not drawn), the cytotoxicity at 70.5 h is -7.78%.

Regarding `CCNc1ncc(C(=O)NC2CCc3ccccc3C2)cn1` (stereo not drawn), the cytotoxicity at 70.5 h was 54.4%.

On to `CC(=O)NCCNC(=O)C(c1ccccc1C)N(C)C` (stereo not drawn), for which the cytotoxicity at 70.5 h is 12.4%.

Regarding `CCCSCC(=O)N1C[C@@H]2CC[C@H](C1)N(Cc1ccccn1)C2=O`, the cytotoxicity at 70.5 h was -5.83%.

Regarding `Fc1ccccc1CC1CCN(Cc2ccccn2)CC1`, the cytotoxicity at 70.5 h is -5.22%.

As for `CCC[C@@H]1CN(C(=O)c2c(F)ccc(OC)c2F)C[C@H]1C(=O)O`, the cytotoxicity at 70.5 h is -0.545%.

Consider `CN1CCN([C@@H]2CCN(CC3=Cc4cc(Cl)ccc4OC3)C[C@H]2O)CC1`, for which the cytotoxicity at 70.5 h was -0.445%.

Turning to `Cc1nc(CN(C)C(=O)Nc2cccc(C)c2C)no1`, the cytotoxicity at 70.5 h was -9.32%.

For `CCn1c(Cn2cncn2)nnc1C1CCN(C2CCOCC2)CC1`, the cytotoxicity at 70.5 h stood at 34.9%.

In the case of `CC(=O)NC(C)C1=CCCN(Cc2ccc(C(=O)O)cc2)C1` (stereo not drawn), the cytotoxicity at 70.5 h stood at 2.27%.

With `O=C1O[C@@H]2CN(Cc3ccncc3)C[C@@H]2N1CCCN1CCOCC1`, the cytotoxicity at 70.5 h is -3.93%.

With `Cc1ccc2cc(CN(C)Cc3ccncn3)c(=O)[nH]c2c1`, the cytotoxicity at 70.5 h is -13.2%.

As to `CCN(Cc1noc(C)n1)C(=O)C(c1cccc(C)c1)N(C)C` (stereo not drawn), the cytotoxicity at 70.5 h worked out at 10.7%.

As to `CCN(CCN1CCCCCC1)C(=O)COc1cccnc1`, the cytotoxicity at 70.5 h came to 16%.

With `COc1ccccc1[C@@H]1CN(Cc2ccncc2)C[C@H]1C(=O)O`, the cytotoxicity at 70.5 h was 9.71%.

In the case of `c1cn(-c2ccc(N3CCC(NC4CC4)CC3)cc2)cn1`, the cytotoxicity at 70.5 h was -14.2%.

As for `CC(C)CC(O)C1CCN(C(=O)c2coc(CN3CCOCC3)c2)CC1` (stereo not drawn), the cytotoxicity at 70.5 h is -7.32%.

Turning to `O=C(Cn1ccc(=O)cc1)NCc1ccc2sccc2c1`, the cytotoxicity at 70.5 h is -7.85%.

With `O=C1OCC(CO)N1Cc1cccc(Cl)c1F` (stereo not drawn), the cytotoxicity at 70.5 h came to 26.5%.

Take `O=C(c1ccccc1)C1CCN(C(=O)CC2COCCN2)CC1` (stereo not drawn): the cytotoxicity at 70.5 h is 1.52%.

Regarding `CN(C)S(=O)(=O)NCc1cccnc1Oc1ccc(F)c(F)c1`, the cytotoxicity at 70.5 h is -4.24%.

As for `CC(C)Nc1cc(N2CCC(n3cc(CCO)nn3)CC2)ncn1`, the cytotoxicity at 70.5 h stood at 16.9%.

Turning to `CN1[C@H]2CC[C@@H]1CN(c1nc(-c3ccncc3)nc3c1cnn3C)CC2`, the cytotoxicity at 70.5 h was -2.38%.

Consider `c1ccc(-c2nnc(N3CCCC4(CCOC4)C3)s2)cc1` (stereo not drawn), for which the cytotoxicity at 70.5 h came out at 1.41%.

Consider `O=C(c1cncc(NCC2COc3ccccc3C2)n1)N1CCOCC1` (stereo not drawn), for which the cytotoxicity at 70.5 h was -7.07%.

As for `COc1ccc(OCc2cc(C(=O)N3CCCCO3)n[nH]2)c(Cl)c1`, the cytotoxicity at 70.5 h is -19.5%.

As to `CCc1ncc(C(=O)N2CC[C@@H]3CC[C@H](C2)N3C)cn1`, the cytotoxicity at 70.5 h was -14%.

Consider `O=C(CN1CCNC1=O)N1CCc2nnc(-c3ccccc3)n2CC1`, for which the cytotoxicity at 70.5 h is -1.95%.

On to `CCn1nc(C)c(NC(=O)CN(C)C(C)c2nccs2)c1C` (stereo not drawn), for which the cytotoxicity at 70.5 h was -6.95%.

Regarding `Cc1cccnc1CNC(=O)CC1C(=O)NCCN1CC(C)(C)C` (stereo not drawn), the cytotoxicity at 70.5 h was -10.2%.

For the compound `CCc1cc(CN(C)C(=O)c2cnn[nH]2)on1`, the cytotoxicity at 70.5 h was -9.04%.

Turning to `Cc1ccccc1C(C(=O)NCCS(C)(=O)=O)N(C)C` (stereo not drawn), the cytotoxicity at 70.5 h was -14.5%.

In the case of `O=C1CCCCCN1Cc1nc(C2(c3ccc(F)cc3)CCOC2)no1` (stereo not drawn), the cytotoxicity at 70.5 h stood at 18.4%.

On to `COCCNc1cc(-c2ccccc2S(N)(=O)=O)c2cc[nH]c2n1`, for which the cytotoxicity at 70.5 h is -7.36%.

On to `CC(C)n1cnnc1CN(C)C(=O)c1ccccc1-n1cncn1`, for which the cytotoxicity at 70.5 h amounted to 0.803%.

With `O=C1N(CC2CC2)CCCC1(O)CN1CCc2[nH]ncc2C1` (stereo not drawn), the cytotoxicity at 70.5 h is -4.29%.

Turning to `c1cnn(CCC2CCN(Cc3ccc4[nH]ccc4c3)CC2)c1`, the cytotoxicity at 70.5 h came to 0.43%.

With `Cc1nc(O)cc(CN2CCC=C(CN(C)C(=O)c3ccco3)C2)n1`, the cytotoxicity at 70.5 h is -14.2%.

In the case of `CCCS(=O)(=O)c1ncc(CN2CCC(C)CC2)n1CC1CCCO1` (stereo not drawn), the cytotoxicity at 70.5 h was -2.16%.

Take `CCCn1ncc(C(=O)NCc2n[nH]c3c2CCCCC3)c1C`: the cytotoxicity at 70.5 h was -13.2%.

For the compound `CCC1c2cccn2CCN1C(=O)c1cc(OC)nc(OC)n1` (stereo not drawn), the cytotoxicity at 70.5 h was 44.1%.

`CNC(=O)C(C)NC(=O)c1cc(COc2ccc(OC)cc2Cl)[nH]n1` (stereo not drawn): the cytotoxicity at 70.5 h was -2.95%.

As to `CCN1CCN(C(=O)CCC2CCN(C(C)CSC)CC2)CC1` (stereo not drawn), the cytotoxicity at 70.5 h was 3.5%.

In the case of `CNc1cc(-c2ccccc2CN)c2cc[nH]c2n1`, the cytotoxicity at 70.5 h was 3.36%.

For the compound `CN(C)C(=O)c1cccnc1N1CCOC(c2ccc(Cl)cc2)C1` (stereo not drawn), the cytotoxicity at 70.5 h is -12.8%.

As to `CN(C)C(=O)NCc1cc2n(n1)CCCN(CC1CCCNC1)C2` (stereo not drawn), the cytotoxicity at 70.5 h was determined as 29.9%.

Consider `Cc1cc(NCCc2c(C)n[nH]c2C)nc(-c2cccnc2)n1`, for which the cytotoxicity at 70.5 h came out at 20.8%.

In the case of `Cc1nn(CC(=O)NCc2cc3n(n2)CCCN(CC(C)C)C3)cc1Cl`, the cytotoxicity at 70.5 h was determined as 9.44%.

Consider `O=C(CCn1cnnn1)N1CCCC(CO)(CCCc2ccccc2)C1` (stereo not drawn), for which the cytotoxicity at 70.5 h is -1.63%.

As to `O=C(NCc1nncn1C1CCCCC1)C1COc2ccccc2O1` (stereo not drawn), the cytotoxicity at 70.5 h is -7.82%.

In the case of `Nc1nnc(CCNC(=O)c2cccc(C3CCCNC3)c2)s1` (stereo not drawn), the cytotoxicity at 70.5 h is -10.1%.

Turning to `Cc1cnccc1NCCNC(=O)[C@H]1CNC[C@H](C(=O)N2CCCC2)C1`, the cytotoxicity at 70.5 h is -4.18%.

Turning to `COC(=O)c1cc(OCC2CCC2)cc(C(=O)N[C@H](C)C(N)=O)c1`, the cytotoxicity at 70.5 h was -10.2%.

Turning to `CC(=O)N1CCc2[nH]cnc2C1C1=CCCN(CCn2cccc2)C1` (stereo not drawn), the cytotoxicity at 70.5 h is -4.34%.

As to `Cc1cc(C(=O)N[C@H]2Cc3ccccc3[C@@H]2N)c(=O)[nH]c1C`, the cytotoxicity at 70.5 h worked out at 1.3%.

Regarding `CCOc1cc(CNCc2ncc[nH]2)c(Cl)cc1OC(C)C`, the cytotoxicity at 70.5 h amounted to 20.6%.

Consider `CCCc1noc(C2CC(=O)N(C(C)(C)C)C2)n1` (stereo not drawn), for which the cytotoxicity at 70.5 h is -16%.

Turning to `O=C(N1CCC2(CC1)[C@H](O)C[C@@H]2O)C1(c2ccccc2F)CC1`, the cytotoxicity at 70.5 h is 1.59%.

Turning to `CN(C)C(C(=O)NCC1(N(C)C)CCOCC1)c1ccccc1F` (stereo not drawn), the cytotoxicity at 70.5 h was -7.91%.

As for `Cc1ccc(C2(CN(C)Cc3snnc3C)CCNCC2)nc1`, the cytotoxicity at 70.5 h is -1.57%.

On to `O=C1CC(NCc2ccc(OC(F)F)cc2)CN1Cc1cccc(F)c1` (stereo not drawn), for which the cytotoxicity at 70.5 h was -4.49%.

Consider `Cc1ccc(CN(C)C(=O)C(C)n2ccnc2C(C)C)o1` (stereo not drawn), for which the cytotoxicity at 70.5 h is -18.9%.

For the compound `CN(Cc1cc2n(n1)CCNC2)Cc1noc(C2CCC2)n1`, the cytotoxicity at 70.5 h was -3.21%.

Take `COc1ccc(Cl)cc1C(=O)N1C[C@H](C(C)C)[C@@H](N)C1`: the cytotoxicity at 70.5 h came out at 3.26%.

Regarding `CCc1nc(C)c(C(=O)N2CCNCC2C(=O)Nc2ccc(C)nc2)o1` (stereo not drawn), the cytotoxicity at 70.5 h was -3.52%.

Turning to `NC(=O)c1ccc(CN2C(=O)C3(CCNCC3)Nc3ccccc32)cc1`, the cytotoxicity at 70.5 h stood at 26.6%.

Turning to `CCc1nc2ccccc2n1C(CC)C(=O)N(C)Cc1noc(C)n1` (stereo not drawn), the cytotoxicity at 70.5 h was -19.8%.

`CCCOC1CCCN(Cc2nc(-c3cccs3)oc2C)C1` (stereo not drawn): the cytotoxicity at 70.5 h was -1.07%.

In the case of `CCCc1cnc(C)nc1N1CCC(Cn2cc(C(C)O)nn2)CC1` (stereo not drawn), the cytotoxicity at 70.5 h was -13.9%.

`CC(C)c1nccc(CN2CCCC(O)(CN(C)C)C2)n1` (stereo not drawn): the cytotoxicity at 70.5 h turned out to be 15%.

Regarding `Cc1nnsc1CN1CCCC1c1nc(-c2ccccc2)no1` (stereo not drawn), the cytotoxicity at 70.5 h was -3.77%.

For the compound `COCCC(=O)NCC1COc2cc(OC)ccc2C1` (stereo not drawn), the cytotoxicity at 70.5 h is -12.7%.

For `Cc1ncsc1CCC(=O)NC1CCN(Cc2cccs2)CC1`, the cytotoxicity at 70.5 h was -11.5%.

Turning to `CC(C)c1nc(CN(C)C(=O)c2ccccc2C2CCNC2)cs1` (stereo not drawn), the cytotoxicity at 70.5 h is -8.26%.

For the compound `CC(CO)(CO)NC(=O)C1CCC(=O)N(Cc2ccc(Cl)cc2)C1` (stereo not drawn), the cytotoxicity at 70.5 h is -2.86%.

Consider `CCc1nc2c(N3CCC4(CC3)CC(=O)N(CC(C)C)C4)ncnc2o1`, for which the cytotoxicity at 70.5 h worked out at 1.84%.

With `Cc1nc2c(c(NCc3cc4ccccc4s3)n1)CCNCC2`, the cytotoxicity at 70.5 h was -5.12%.

Take `COCCc1noc(CN(C)c2nc(C)nc(C)c2C)n1`: the cytotoxicity at 70.5 h turned out to be 25.3%.

On to `O=C(CCc1nc(Cl)n[nH]1)N1CCC2(CCCN(CC3CCC3)C2=O)C1` (stereo not drawn), for which the cytotoxicity at 70.5 h was -7.56%.

With `Cc1cc(NCCNc2cccnc2)nc(-c2ccccc2O)n1`, the cytotoxicity at 70.5 h stood at 3.73%.

For `CN1CC2(CCCN(c3cc(N4CCCCC4)ncn3)C2)OC1=O` (stereo not drawn), the cytotoxicity at 70.5 h was found to be 12.1%.

Take `Cc1cc(=O)c2ccccc2n1CC1CCN(C(C)C)C1` (stereo not drawn): the cytotoxicity at 70.5 h was -1.13%.

Take `CN(Cc1ccon1)C1CCN(c2cccc(-c3cscn3)c2)CC1`: the cytotoxicity at 70.5 h was -4.4%.

Regarding `O=c1[nH]c(-c2ccccc2)nc2c1CCN(S(=O)(=O)N1CCCC1)C2`, the cytotoxicity at 70.5 h was -7.26%.

Turning to `Cc1ncc(C)c(N2CCC(CCc3ccccc3)(C(=O)O)CC2)n1`, the cytotoxicity at 70.5 h was -10.1%.

With `CCN1CCC(N2C[C@@H](C(=O)O)[C@H](c3cccc(OC)c3)C2)CC1`, the cytotoxicity at 70.5 h was -0.816%.

On to `Cn1c(Cn2ccnc2)nnc1C1CCCN(CC(C)(C)C)C1` (stereo not drawn), for which the cytotoxicity at 70.5 h was -8.29%.

As to `CNC(=O)[C@@H]1C[C@@H](N)CN1C(=O)CCSCc1ccc(F)cc1`, the cytotoxicity at 70.5 h is 7.46%.

With `COCC(=O)N1CCC2(CC1)CC(=O)N(Cc1ccc(Cl)cc1)C2`, the cytotoxicity at 70.5 h was -6.31%.
